From patent publication US20100061982A1, “3-SUBSTITUTED-1H-INDOLE, 3-SUBSTITUTED-1H-PYRROLO[2,3-B]PYRIDINE AND 3-SUBSTITUTED-1H-PYRROLO[3,2-B]PYRIDINE COMPOUNDS, THEIR USE AS MTOR KINASE AND PI3 KINASE INHIBITORS, AND THEIR SYNTHESES” (priority 2008, published 2010)
In brackets after ≈: the same amount, converted by molar mass. Read-outs that look alike come from different tables or passages of the source.

Tests used:
[1] = PAMPA permeability pH 7.4
[2] = Microsome Stability (15 min), rat; assay type: in vitro ADME; settings: microsomes, Phase I (NADPH), read-out: Microsome Stability (15 min) T ½ Phase I rat
[3] = Plasma Stability (37° C.), rat
[4] = physchem; settings: pH 7.4, aqueous buffer
[5] = target: PI3K alpha (Homo sapiens, UniProt P42336); assay: PI3K-alpha Fluorescence Polarization Assay; assay type: biochemical
[6] = Microsome Stability (15 min), human; assay type: in vitro ADME; settings: microsomes, Phase I (NADPH), read-out: Microsome Stability (15 min) T ½ Phase I human
[7] = In vivo blood/plasma and tumor levels of prodrug and metabolites after 50 mg, kg po; settings: 50 mg
[8] = Buffer Stability (37° C.)
[9] = Plasma Stability (37° C.), nude mouse
[10] = target: T1, mTOR (Homo sapiens, UniProt P42345); assay: mTOR Enzyme Assay (DELFIA, purified enzyme); assay type: biochemical; parameters: FLAG; settings: read-out: mTOR Mean IC50
[11] = Microsome Stability (15 min), nude mouse; assay type: in vitro ADME; settings: microsomes, Phase I (NADPH), read-out: Microsome Stability (15 min) T ½ Phase I nude mouse
[12] = CACO2 permeability a-b/b-a; assay type: in vitro ADME; settings: human, Caco-2; for Papp A→B: a − b (first value of cell), read-out: CACO2 Pe a − b; for Papp B→A: b − a (second value of cell), read-out: CACO2 Pe b − a
[13] = tested on: human tumor xenograft models; settings: cited from earlier work
[14] = tested on: acute lymphoblastic leukemia; settings: in vivo; cited from earlier work
[15] = target: T1, mTOR; settings: read-out: mTOR IC50; mTOR complexes / mTOR enzymes; cited from earlier work

Sequence of PI3K alpha (P42336 whole entry, species assumed): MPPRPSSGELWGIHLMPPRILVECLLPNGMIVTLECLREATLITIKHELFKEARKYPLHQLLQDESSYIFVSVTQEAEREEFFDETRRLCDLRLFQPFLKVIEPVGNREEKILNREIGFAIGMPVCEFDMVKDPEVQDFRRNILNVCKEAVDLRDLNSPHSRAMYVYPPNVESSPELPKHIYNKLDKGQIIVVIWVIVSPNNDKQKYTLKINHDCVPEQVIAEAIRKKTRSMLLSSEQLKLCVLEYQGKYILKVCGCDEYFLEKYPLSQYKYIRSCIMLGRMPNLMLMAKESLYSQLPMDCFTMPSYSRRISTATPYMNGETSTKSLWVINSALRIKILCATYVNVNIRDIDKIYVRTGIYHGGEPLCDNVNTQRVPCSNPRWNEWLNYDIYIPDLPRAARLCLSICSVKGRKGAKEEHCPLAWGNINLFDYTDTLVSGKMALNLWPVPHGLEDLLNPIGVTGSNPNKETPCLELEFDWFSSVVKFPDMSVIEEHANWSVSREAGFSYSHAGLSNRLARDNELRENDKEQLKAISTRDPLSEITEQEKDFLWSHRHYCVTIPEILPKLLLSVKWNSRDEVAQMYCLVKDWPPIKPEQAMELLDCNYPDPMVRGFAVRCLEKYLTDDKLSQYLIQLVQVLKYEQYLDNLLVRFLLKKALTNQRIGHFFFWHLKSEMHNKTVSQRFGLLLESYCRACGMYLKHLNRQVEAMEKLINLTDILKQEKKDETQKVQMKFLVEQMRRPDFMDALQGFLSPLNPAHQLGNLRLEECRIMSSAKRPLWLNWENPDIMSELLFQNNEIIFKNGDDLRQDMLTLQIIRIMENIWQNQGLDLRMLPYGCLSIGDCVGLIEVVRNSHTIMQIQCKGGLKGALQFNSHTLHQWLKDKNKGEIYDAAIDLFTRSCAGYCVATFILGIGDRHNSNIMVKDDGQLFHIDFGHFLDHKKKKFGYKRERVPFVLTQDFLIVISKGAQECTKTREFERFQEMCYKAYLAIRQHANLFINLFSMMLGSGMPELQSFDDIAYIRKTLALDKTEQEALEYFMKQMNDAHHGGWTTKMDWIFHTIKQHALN
Sequence of PI3K alpha (P27986 whole entry partner, species assumed): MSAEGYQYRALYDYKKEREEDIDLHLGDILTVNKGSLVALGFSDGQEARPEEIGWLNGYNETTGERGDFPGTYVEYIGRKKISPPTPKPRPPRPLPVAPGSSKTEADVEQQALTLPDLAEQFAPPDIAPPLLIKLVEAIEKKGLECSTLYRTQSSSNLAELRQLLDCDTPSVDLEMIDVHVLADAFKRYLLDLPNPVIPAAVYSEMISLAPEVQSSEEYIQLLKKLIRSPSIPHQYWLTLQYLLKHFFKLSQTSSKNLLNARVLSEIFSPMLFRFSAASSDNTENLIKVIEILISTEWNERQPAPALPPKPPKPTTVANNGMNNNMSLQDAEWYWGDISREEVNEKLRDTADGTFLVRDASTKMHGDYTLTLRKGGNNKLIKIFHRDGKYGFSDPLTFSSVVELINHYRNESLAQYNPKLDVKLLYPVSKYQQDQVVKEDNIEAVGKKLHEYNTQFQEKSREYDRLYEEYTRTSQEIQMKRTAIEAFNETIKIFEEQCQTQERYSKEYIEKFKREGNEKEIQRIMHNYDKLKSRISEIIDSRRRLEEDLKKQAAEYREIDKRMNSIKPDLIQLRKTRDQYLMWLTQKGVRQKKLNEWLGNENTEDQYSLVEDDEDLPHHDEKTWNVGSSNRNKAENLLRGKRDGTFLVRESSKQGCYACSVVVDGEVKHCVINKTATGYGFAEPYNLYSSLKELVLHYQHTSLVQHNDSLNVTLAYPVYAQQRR

| Compound | PAMPA Pe [1] | half-life [2] [min] | Plasma Stability (37° C.) % Remaining (3-3.5 hours) rat [3] [%] | solubility [4] [µg/mL] | IC50 ([5]; read-out: PI3K alpha Mean IC50) [µM] | half-life [6] [min] | Buffer Stability (37° C.) % Remaining (at 16-23 hours) SGF [8] [%] | Buffer Stability (37° C.) % Remaining (at 16-23 hours) SIF [8] [%] | Buffer Stability (37° C.) % Remaining (at 16-23 hours) pH 1 [8] [%] | Buffer Stability (37° C.) % Remaining (at 16-23 hours) pH 4.5 [8] [%] | Buffer Stability (37° C.) % Remaining (at 16-23 hours) pH 6.6 [8] [%] | Buffer Stability (37° C.) % Remaining (at 16-23 hours) pH 7.4 [8] [%] | Buffer Stability (37° C.) % Remaining (at 16-23 hours) pH 9 [8] [%] | Plasma Stability (37° C.) % Remaining (3-3.5 hours) nude mouse [9] [%] | IC50 [10] [µM] | half-life [11] [min] | IC50 [5] [µM] | also measured |
| --- | --- | --- | --- | --- | --- | --- | --- | --- | --- | --- | --- | --- | --- | --- | --- | --- | --- | --- |
| COc1ccc2[nH]c(-c3ccccc3)c(/C=C3\Oc4cc(OC(=O)N(c5ccccc5)c5ccccc5)cc(OC(=O)N(c5ccccc5)c5ccccc5)c4C3=O)c2c1 [Example 11, (2Z)-2-[(5-methoxy-2-phenyl-1H-indol-3-yl)methylene]-3-oxo-2,3-dihydro-1-benzofuran-4,6-diyl bis(diphenylcarbamate)] | 1.14 10e−6 cm/s | > 30 | 95 | 1 (≈ 1.27 µM) | > 5.05 | 23 | 100 | 98 | 99 | 103 | 100 | 100 | 89 | 85 |  |  |  | plasma prodrug concentration ([7]; 0.5 h): bql, bql; plasma prodrug concentration ([7]; 2 h): bql, bql |
| COc1ccc2[nH]c(-c3ccccc3)c(/C=C3\Oc4cc(OP(=O)(O)O)ccc4C3=O)c2c1 [Example 27, (2Z)-2-[(5-methoxy-2-phenyl-1H-indol-3-yl)methylene]-3-oxo-2,3-dihydro-1-benzofuran-6-yl dihydrogen phosphate] | 0 10e−6 cm/s | 19 |  | 65 | 0.123 |  |  |  |  |  |  |  |  |  | 2.45 |  |  |  |
| COc1ccc2[nH]c(-c3ccccc3)c(/C=C3\Oc4cc(OP(=O)(O)O)cc(OP(=O)(O)O)c4C3=O)c2c1 [Example 38, (2Z)-2-[(5-methoxy-2-phenyl-1H-indol-3-yl)methylene]-3-oxo-2,3-dihydro-1-benzofuran-4,6-diyl bis[dihydrogen (phosphate)]] | 0.01 10e−6 cm/s |  |  | > 100 | 0.89 |  |  |  |  |  |  |  |  |  | 0.985 |  |  |  |
| CN(C)C(=O)Oc1cc(OC(=O)N(C)C)c2c(c1)O/C(=C\c1cn(C)c3nccc(-c4ccccc4)c13)C2=O [Example 43, (2Z)-2-[(1-methyl-4-phenyl-1H-pyrrolo[2,3-b]pyridin-3-yl)methylene]-3-oxo-2,3-dihydro-1-benzofuran-4,6-diyl bis(dimethylcarbamate)] | Undetected |  | 54 |  |  | 11 | 100 | 100 | 100 | 100 | 100 | 100 | 100 | 52 | > 4 | 12 | > 10 | Papp A→B [12]: 2.2 ×10⁻⁶ cm/s; Papp B→A [12]: 1 ×10⁻⁶ cm/s |
| CN(C)C(=O)Oc1cccc2c1C(=O)/C(=C/c1cn(C)c3nccc(N4CC5CCC(C4)O5)c13)O2 [Example 44, (2Z)-2-{[1-methyl-4-(8-oxa-3-azabicyclo[3.2.1]oct-3-yl)-1H-pyrrolo[2,3-b]pyridin-3-yl]methylene}-3-oxo-2,3-dihydro-1-benzofuran-4-yl dimethylcarbamate] | Undetected | 3 | 51 |  |  | 8 | 102 | 100 | 102 | 100 | 100 | 100 | 100 | 64 | 0.031 | 4 | 2.49 |  |
| CN(C)C(=O)Oc1cc(OC(=O)N(C)C)c2c(c1)O/C(=C\c1cn(C)c3cccc(-c4ccccc4)c13)C2=O [Example 48, (2Z)-2-[(1-methyl-4-phenyl-1H-indol-3-yl)methylene]-3-oxo-2,3-dihydro-1-benzofuran-4,6-diyl bis(dimethylcarbamate)] | Undetected |  | >100 |  |  | 25 | 100 | 100 | 100 | 100 | 100 | 100 | 100 | 80 | 3.15 | 14 | > 10 | Papp A→B [12]: 0.5 ×10⁻⁶ cm/s; Papp B→A [12]: 0.5 ×10⁻⁶ cm/s |
| Cn1c(=O)n(-c2ccc(C(C)(C)C#N)cc2)c2c3cc(-c4cnc5ccccc5c4)ccc3ncc21 [NVP-BEZ-235, 2-methyl-2-(4-(3-methyl-2-oxo-8-(quinolin-3-yl)-2,3-dihydro-1H-imidazo[4,5-c]quinolin-1-yl)phenyl)propanenitrile] |  |  |  |  |  |  |  |  |  |  |  |  |  |  |  |  |  | activity in human tumor xenograft models ([13]; prostrate (PC-3) and glioblastoma (U-87)): demonstrated activity |
| Oc1cccc(-c2nc(N3CCOCC3)c3oc4ncccc4c3n2)c1 [PI103, 3-(4-(4-morpholinyl)pyrido[3′,′: 4,5]furo[3,2-d]pyrimidin-2-yl)phenol] |  |  |  |  |  |  |  |  |  |  |  |  |  |  |  |  |  | activity in human tumor xenograft models ([13]; I.P. dosing in mice, U87MG, PC3, MDA-MB-468, MDA-MB-435, HCT 116, SKOV3, IGROV-1): demonstrated activity |
| CO[C@H]1C[C@@H]2CC[C@@H](C)[C@@](O)(O2)C(=O)C(=O)N2CCCC[C@H]2C(=O)O[C@H]([C@H](C)C[C@@H]2CC[C@@H](OC(=O)C(C)(CO)CO)[C@H](OC)C2)CC(=O)[C@H](C)/C=C(\C)[C@@H](O)[C@@H](OC)C(=O)[C@H](C)C[C@H](C)/C=C/C=C/C=C/1C [Torisel] |  |  |  |  |  |  |  |  |  |  |  |  |  |  |  |  |  | activity in NOS/SCID xenograft mouse model of acute lymphoblastic leukemia [14]: active |
| FC(F)c1nc2ccccc2n1-c1nc(N2CCOCC2)nc(N2CCOCC2)n1 [ZSTK474, 2-(2-difluoromethylbenzoimidazol-1-yl)-4,6-dimorpholino-1,3,5-triazine] |  |  |  |  |  |  |  |  |  |  |  |  |  |  |  |  |  | IC50 [15]: > 10 µM; tumor growth in mouse human xenograft cancer models ([13]; chronic oral administration, 400 mg/kg, A549, PC-3, WiDr): completely inhibited growth |
